Assays:
[1] = tested on: hyaluronic acid (HA); assay: Anti-wrinkle index test: HA content in UVA-stimulated fibroblasts (ELISA); format: cell-based, human; conditions: UVA 7 J/cm^2, samples 24 h, black tea fermentation liquor 6%, VC 80 µg/ml, GSH 20 m/ml
Experimental: (§1) Test of anti-wrinkle index of fibroblasts: fibroblasts were set with a blank control group, a model group, a positive control group and a sample group. The number of cells per well was controlled to be 5×10^5. After incubation at 37° C. for 24 h in a 5% CO2 incubator, the medium was removed and a small amount of PBS (pH of 7.4) was added to just cover the cells. The cells were stimulated with UVA at the UV radiation dose of 7 J/cm^2, and the blank control group was not radiated. PBS was discarded, samples with different concentrations were added, with the addition concentration of the black tea fermentation liquor being 6%, VC being 80 µg/ml, and GSH being 20 m/ml; and the cells were stimulated for 24 h. The cell culture supernatants were centrifuged for 15 min at 4° C. and 1000 g, and the supernatants were tested for MMP-1 content using human matrix metalloproteinase-1 (MMP-1) ELISA Kit. The cell suspension was diluted with PBS (pH of 7.2-7.4) to obtain a cell concentration of 1×10^6 cells/mL, and the cells were ruptured after repeated freeze-thaw treatment. The cells were centrifuged at 1000 g for 20 min to obtain the supernatant, which was used to test the CoLI content using a type I collagen (CoLI) test box, and test the HA content using human hyaluronic acid (HA) ELISA Kit. All operations were conducted in accordance with the kit instructions.

[2] = tested on: MMP-1; assay: Anti-wrinkle index test: MMP-1 content in supernatant of UVA-stimulated fibroblasts (ELISA); format: cell-based, human; conditions: UVA 7 J/cm^2, samples 24 h, black tea fermentation liquor 6%, VC 80 µg/ml, GSH 20 m/ml
Experimental: as §1

[3] = tested on: type I collagen (CoLI); assay: Anti-wrinkle index test: CoL I content in UVA-stimulated fibroblasts (type I collagen test box); format: cell-based; conditions: UVA 7 J/cm^2, samples 24 h, black tea fermentation liquor 6%, VC 80 µg/ml, GSH 20 m/ml
Experimental: as §1

[4] = tested on: theanine synthesis system; assay: High throughput screening of alanine decarboxylase CsAlaDC mutant enzyme in theanine synthesis system; format: biochemical, Escherichia coli
Experimental: First, a BL21-GMAS-CsAlaDC recombinant single colony was selected and loaded onto a 96-well plate, added into a 800 μL LB medium, and cultured at 37° C. and 900 r/min for 6 h; thereafter, IPTG (isopropyl-3-D-thiogalactoside) at a final concentration of 0.1 mM was added, and cultured at 24° C. for 16 h. Into the 96-well plate, 0.1 mL glycerol, 200 μL potassium glutamate of 50 mM, 200 μL alanine of 50 mM, 50 μL ATP of 10 mM, 80 μL MgCl2 of 5 mM, 85 μL DTT of 10 mM, and 85 μL Tris-HCl of 100 mM (pH 7.5) were sequentially added, to form a theanine synthesis system. The synthesis reaction was conducted for 24 h in a 30° C. water bath and repeated three times. […]
Color developing solution: 1.0 g/L soluble starch was weighed, mixed with distilled water, and boiling distilled water was added. […] After cooling, insoluble substances were filtered through a quantitative filter paper, and 1.0 g sodium hydroxide was added. […]
10 mL EP tubes were taken, 1 mL theanine sample and 4 mL sodium bicarbonate solution were added to one tube, and 5 mL sodium bicarbonate solution was added to the other tube, mixed and then stood for 5 min. […] Immediately after being mixed well, their absorbance values were respectively measured at the wavelength of 570 nm on the spectrophotometer by using distilled water as reference and with a cuvette. A high absorbance at 570 nm indicates a high theanine content. […]

Molecule | HA content [1] | MMP-1 content [2] | CoL I content [3] | content of theanine catalyzed by the enzyme ([4]; BL21-GMAS-CsAlaDC recombinant, glutamate + alanine + ATP, no ethylamine, 30° C., 24 h) | theanine content higher than that of original enzyme CsAlaDC ([4]; compared with original enzyme CsAlaDC)
N[C@@H](CCC(=O)N[C@@H](CS)C(=O)NCC(=O)O)C(=O)O [GSH] | 5.45 | 21.17 | 6.89 | – | –
O=C1O[C@H]([C@@H](O)CO)C(O)=C1O [VC] | 4.38 | 20.42 | 2.45 | – | –
CsAlaDC-I177Y (protein) MEGTVSVLSNVSKVELLSKCFDLITIPVEPLPPVVASNGVAGGETKKMKEKDIVLGKNVHTTSLTITEPDVDDDSTSDMEAFMAGVLVRYRKTLIEKTKYHLGYPFNLDLDYGPLAELQHFAINNLGDPFIESNYGVHSRQFEVGVLDWFARLWEIEQKEYWGYITNGGTEGNLHGYLVGREVFPDGIFYTSRESHYSIFKAARMYRMECVKVGTLINGEIDCADFKAKLLSNKDKPAIINLNIGTTVKGAVDDIDLVIQTLEECGFSHDRFYIHCDGALFGFMMPFLNRGPKITFKKPIGSVSVSGHKFMGCPTPCGVQITRLEHINALSRNVEYLASRDATITGSRNGHSPIILWYALNRKGFKGFQKEVQKCLRNAHYLKDRLREAGISAMLNELSSTVVFERPLDEEFVRRWQLACEGNMAHVIVMPNVTIEKLDEFLNELVQKRANWYNDGKAGPPCLAPDIGSENCDCDLHK | – | – | – | 93.6 µM | 85%

Source: patent US12453358B2, “Theanine-producing strain and use thereof in tea fermentation production” (GUANGZHOU ZHONGZHUANG BEAUTY COSMETICS CO., LTD, priority 2024, dated 2025)
